Literature values, collected in US20230405024A1 (priority 2020, published 2023).

For cannabidiol [CBD], the solubility in water is given as “insoluble”.
